Laboratory results taken from publication PMC8861615, “Searching for plant-derived antivirals against dengue virus and Zika virus” (Virology Journal, 2022).
Entries after “also recorded” stand apart in the source; their conditions may differ. Read-outs that look alike come from different tables or passages of the source.

What was measured:
Vero cells = assay: Cytotoxicity (CC50) by MTT method in Vero cells; type: cell-based; conditions: for CC50: compounds, MTT
Experimental: (§1) Compounds and selected extracts that tested positive for anti-ZIKV or anti-DENV-2 activity at the screening step had their CC50 determined by using an 8‐point dose range in 96 well microplate containing Vero or BHK-21 cell monolayers. Cell viability was observed by optic microscopy and measured by the MTT method as described. The experiments were performed in duplicate and repeated at least three times.
(§2) Bioassay data were normalized to untreated uninfected cells and the EC50 and CC50 values were obtained using GraphPad Prism 5 based on nonlinear logistic regression of the experimental dose–response curves. The values correspond to three independent assays' average and standard deviation with at least 8 sample distinct concentrations. The CC50 and EC50 values ratio was used as a selectivity index (SI). The extracts and compounds with higher SI values were considered the most promising and selected for further investigation if available in sufficient quantities.

ZIKV [1] = assay: microbe, parasite or virus in culture; type: cell-based, Zika virus; conditions: for ZIKV EC50 (µM) / EC50: compounds, Vero cells, MTT
Experimental: (§3) Plant extracts were screened for their cytotoxic and anti-ZIKV and anti-DENV activities in Vero cells and BHK-21, respectively, in 96-well culture plates by observing the reduction of the viral cytopathic effect (CPE) and then measured by the MTT method. The crude extracts were dissolved in 4% DMSO aqueous solution, and their concentration was normalized to 50 µg/ml with Eagle's minimum essential medium (MEM) supplemented with 2% fetal bovine serum (FBS). Briefly, 8 × 10^3 of BHK-21 cells or 1 × 10^4 of Vero cells per well were seeded in a 96-well plate and incubated for 24 h at 37 °C and 5% CO2 atmosphere. Extract solution and virus suspension, at a multiplicity of infection (m.o.i.) of 2, for both viruses, were simultaneously added on 70% confluent monolayers. Each extract was tested in duplicate. Controls of untreated infected and untreated uninfected cells incubated with or without DMSO were included. Interferon-α 2B, in concentrations of 500 and 1000 IU/mL, was used as a positive antiviral control in all antiviral assays. […] Briefly, the supernatants were removed, and 30 µl of a stock solution of MTT (2 mg/ml) dissolved in phosphate-buffered saline were added to each well. After 90 min of incubation at 37 °C, 130 µl of DMSO were added to each well, and plates were homogenized for 5 min at 500 rpm. The absorbance values of each reaction were measured in an ELISA reader (Spectra Max, Molecular Devices, USA) at λ540 nm. […] Cytotoxicity (CC50) and anti-ZIKV/DENV-2 (CE50) experiments were performed in duplicate and repeated at least three times.
(§4) Viral CPE and cell viability were observed by optic microscopy and measured by the MTT method as previously described. […] The experiments were performed in duplicate and repeated at least three times.
(§5) Bioassay data were normalized to untreated uninfected cells and the EC50 and CC50 values were obtained using GraphPad Prism 5 based on nonlinear logistic regression of the experimental dose–response curves. […] The CC50 and EC50 values ratio was used as a selectivity index (SI).

DENV-2 [2] = assay: Virucidal activity by plaque reduction assay, DENV in BHK-21 cells; type: cell-based, Dengue virus serotype 2; conditions: compounds
Experimental: (§6) The virucidal activity of extracts and compounds against ZIKV and DENV was assessed by plaque reduction assay in Vero and BHK-21 cells, respectively, in 24 well microplates. […] Virus suspension without the extract/compound was included as a control. Surviving infectious viral particles were assessed by viral plaque formation assay. Briefly, the infected monolayers were overlaid with 1.5% carboxymethyl cellulose containing MEM with 2% FBS and incubated for five days. After that, cell monolayers were fixed with 10% formaldehyde and stained with 1% crystal violet 1% in an 30% ethanol aqueous solution.

BHK-21 cells = assay: Cytotoxicity (CC50) by MTT method in BHK-21 cells; type: cell-based, Hamster; conditions: for CC50: compounds, MTT
Experimental: as §1, §2

ZIKV [3] = assay: Virucidal activity by plaque reduction assay, ZIKV in Vero cells; type: cell-based, Zika virus; conditions: compounds
Experimental: as §6

DENV-2 [4] = assay: Anti-DENV-2 activity by viral CPE reduction and MTT method in BHK-21 cells; type: cell-based, Dengue virus serotype 2
Experimental: as §3, §4, §5

[5] = Cytotoxicity (CC50) by MTT method in Vero cells; type: cell-based; conditions: African green monkey, compounds, MTT
Experimental: as §1, §2

[6] = Cytotoxicity (CC50) by MTT method in BHK-21 cells; type: cell-based, Hamster; conditions: hamster, compounds, MTT
Experimental: as §1, §2

[7] = Dengue virus, DENV2, BHK-21, read-out: DENV-2 EC50 (µM)
[8] = compounds, BHK-21 cells, MTT, read-out: DENV-2 EC50

| Compound | CC50 (Vero cells) [µM] | DENV-2 Virucidal activity (DENV-2 [2]) | CC50 (BHK-21 cells) [µM] | ZIKV Virucidal activity (ZIKV [3]) | DENV-2 EC50 (µM) (DENV-2 [4]; compounds, BHK-21 cells, MTT) | EC50 (ZIKV [1]) [µM] | also measured |
| --- | --- | --- | --- | --- | --- | --- | --- |
| CC(=O)O[C@H]1[C@H]2c3cc4c(cc3CN3CCC(=C[C@@H]1OC(C)=O)[C@H]23)OCO4 [1,2-diacetyl-lycorine] | > 100 | No | > 100 | No | no antiviral activity; also recorded: Inactive |  | ZIKV EC50 (µM) (ZIKV [1]): Inactive |
| CC(=O)O[C@H]1[C@H]2c3cc4c(cc3CN3CCC(=C[C@@H]1O)[C@H]23)OCO4 [1-acetyl-lycorine] | 19.8 | No | 7.8 | No | no antiviral activity; also recorded: Inactive | 19.3 |  |
| O[C@H]1[C@H]2c3cc4c(cc3CN3CCC(=C[C@@H]1O)[C@H]23)OCO4 [Lycorine] |  | No |  | No |  |  | CC50 [5]: 3.4 µM; EC50 (ZIKV [1]; Zika virus): 0.9 µM; CC50 [6]: 4.3 µM; EC50 (DENV-2 [4]; [7]): 0.5 µM |
| O=C1NC2C(=C[C@H](O)[C@@H](O)[C@H]2OC2OCC(O)C(O)C2O)c2cc3c(c(O)c21)OCO3 (stereo partly drawn) [Narciclasine-4-O-β-D-xylopyranoside, narciclasine-4-O-β-D-xylopyranoside] | 51.8 | No | 39.3 | No |  | 7.9 | Times less toxic than narciclasine in Vero cells (Vero cells; ratio versus narciclasine): 430 times; Times less toxic than narciclasine in BHK-21 cells (BHK-21 cells; ratio versus narciclasine): 430 times; EC50 (DENV-2 [4]; [8]): 7.9 µM |
| O=C1N[C@@H]2C(=C[C@H](O)[C@@H](O)[C@H]2O)c2cc3c(c(O)c21)OCO3 [Narciclasine] |  | No |  | No |  | 0.02 | Active concentration against ZIKV, times less than lycorine (ZIKV [1]; ratio versus lycorine): 45 times; Active concentration against ZIKV, times less than pretazettine (ZIKV [1]; ratio versus pretazettine): 95 times; EC50 (DENV-2 [4]; [8]): 0.02 µM; Active concentration against DENV-2, times less than lycorine (DENV-2 [4]; ratio versus lycorine): 25 times; Active concentration against DENV-2, times less than pretazettine (DENV-2 [4]; ratio versus pretazettine): 40 times |
| CO[C@@H]1C=C[C@@]23c4cc5c(cc4C(O)O[C@H]2CN(C)[C@H]3C1)OCO5 (stereo partly drawn) [Pretazettine] |  | No |  | No |  |  | CC50 ([5]; Vero cell monolayers): 7.2 µM; EC50 (ZIKV [1]; Zika virus): 1.9 µM; CC50 ([6]; BHK-21 cell monolayers): 5.4 µM; EC50 (DENV-2 [4]; [7]): 0.8 µM |
| C[C@@H]1O[C@@H](OC[C@H]2O[C@@H](Oc3c(-c4ccc(O)c(O)c4)oc4cc(O)cc(O)c4c3=O)[C@H](O)[C@@H](O)[C@@H]2O)[C@H](O)[C@H](O)[C@H]1O [Rutine] | > 300 | No | > 300 |  | no antiviral activity; also recorded: Inactive |  | ZIKV EC50 (µM) (ZIKV [1]): no antiviral activity; also recorded: Inactive |
